Values of other authors as cited in patent US8257918B2, “Intelligent nanomedicine integrating diagnosis and therapy” (The Regents of the University of California, priority 2004, dated 2012).

Key:
tumor = details: comparison with doxorubicin

| SMILES | anti-tumor efficiency relative to doxorubicin (tumor) | cumulative doses that engender a substantial risk of cardiotoxicity |
| --- | --- | --- |
| COc1cccc2c1C(=O)c1c(O)c3c(c(O)c1C2=O)C[C@@](O)(C(=O)CO)C[C@@H]3O[C@H]1C[C@H](NC(=O)[C@@H](N)CC(C)C)[C@H](O)[C@H](C)O1 [Leu-Dox, N-1-leucyl-doxorubucin] | more efficient anti-tumor agents than doxorubicin |  |
| COc1cccc2c1C(=O)c1c(O)c3c(c(O)c1C2=O)C[C@@](O)(C(=O)CO)C[C@@H]3O[C@H]1C[C@H](N)[C@H](O)[C@H](C)O1 [doxorubicin] |  | exceed 550 mg/m^2 |
